Source: ChEMBL document CHEMBL5352506, “The Zinc-Binding Group Effect: Lessons from Non-Hydroxamic Acid Vorinostat Analogs” (J Med Chem, 2023)

Tests used:
[1] = Metabolic stability in mouse liver microsomes assessed as half life; assay type: ADME, Microsome
[2] = Stability in mouse plasma assessed as half life; assay type: ADME, cell-free
Histone deacetylase 1 = Histone deacetylase 1 (Homo sapiens, UniProt Q13547); assay: Inhibition of human full-length recombinant HDAC1 incubated for 2 hrs by fluorescence based analysis
Histone deacetylase 1, sequence (Q13547 whole entry): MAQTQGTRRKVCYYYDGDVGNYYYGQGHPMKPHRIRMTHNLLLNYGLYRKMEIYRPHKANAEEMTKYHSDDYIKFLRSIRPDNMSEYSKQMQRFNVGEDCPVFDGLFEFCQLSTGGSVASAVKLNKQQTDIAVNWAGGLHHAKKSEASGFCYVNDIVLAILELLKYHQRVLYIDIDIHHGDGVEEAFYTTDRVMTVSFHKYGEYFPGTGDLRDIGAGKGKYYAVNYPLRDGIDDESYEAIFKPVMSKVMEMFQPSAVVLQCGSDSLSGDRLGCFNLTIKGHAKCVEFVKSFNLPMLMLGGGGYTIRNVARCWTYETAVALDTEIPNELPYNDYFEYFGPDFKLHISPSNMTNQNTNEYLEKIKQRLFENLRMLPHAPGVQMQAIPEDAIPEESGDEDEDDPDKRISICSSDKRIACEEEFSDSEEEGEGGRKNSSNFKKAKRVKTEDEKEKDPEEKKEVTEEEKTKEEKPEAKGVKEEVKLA

[3] = biological target: T1, Protein deacetylase HDAC6 (Homo sapiens, UniProt Q9UBN7); assay: Inhibition of human full-length recombinant HDAC6 incubated for 2 hrs by fluorescence based analysis
T1 sequence (Q9UBN7 whole entry): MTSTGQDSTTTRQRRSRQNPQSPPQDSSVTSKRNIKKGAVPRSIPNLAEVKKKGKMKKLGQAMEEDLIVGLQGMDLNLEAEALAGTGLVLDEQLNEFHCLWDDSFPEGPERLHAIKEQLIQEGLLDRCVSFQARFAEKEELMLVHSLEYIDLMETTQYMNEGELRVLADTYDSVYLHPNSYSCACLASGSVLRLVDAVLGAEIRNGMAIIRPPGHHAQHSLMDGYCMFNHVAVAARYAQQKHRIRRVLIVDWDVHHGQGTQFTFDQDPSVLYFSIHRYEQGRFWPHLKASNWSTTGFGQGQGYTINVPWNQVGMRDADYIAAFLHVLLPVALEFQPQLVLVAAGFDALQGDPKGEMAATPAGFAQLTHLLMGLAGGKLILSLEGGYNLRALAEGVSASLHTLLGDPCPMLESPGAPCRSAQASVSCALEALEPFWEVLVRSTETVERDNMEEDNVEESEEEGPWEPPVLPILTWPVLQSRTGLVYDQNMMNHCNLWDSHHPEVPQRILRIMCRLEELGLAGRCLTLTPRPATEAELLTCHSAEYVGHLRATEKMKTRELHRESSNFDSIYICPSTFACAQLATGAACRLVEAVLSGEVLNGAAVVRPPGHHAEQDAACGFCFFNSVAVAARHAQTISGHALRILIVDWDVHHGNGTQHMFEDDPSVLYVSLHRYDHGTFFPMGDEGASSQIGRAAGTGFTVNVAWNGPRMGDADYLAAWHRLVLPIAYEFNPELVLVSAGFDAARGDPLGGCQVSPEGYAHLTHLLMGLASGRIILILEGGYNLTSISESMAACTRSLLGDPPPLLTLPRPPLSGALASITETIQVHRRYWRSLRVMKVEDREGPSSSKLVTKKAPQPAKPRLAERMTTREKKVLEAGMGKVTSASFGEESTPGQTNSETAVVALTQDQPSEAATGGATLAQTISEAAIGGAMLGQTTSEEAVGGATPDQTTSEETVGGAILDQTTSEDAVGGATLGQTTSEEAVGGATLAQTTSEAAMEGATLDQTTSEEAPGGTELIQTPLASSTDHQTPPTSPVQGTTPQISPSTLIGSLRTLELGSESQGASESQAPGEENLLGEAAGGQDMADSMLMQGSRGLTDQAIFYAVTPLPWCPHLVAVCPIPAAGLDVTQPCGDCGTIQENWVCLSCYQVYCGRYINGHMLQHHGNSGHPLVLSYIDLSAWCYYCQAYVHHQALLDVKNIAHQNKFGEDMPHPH

Histone deacetylase = assay type: cell-based, Homo sapiens; details: hela
MCF7 = assay: Antiproliferative activity against human MCF7 cells assessed as inhibition of cell growth by MTT assay; assay type: functional, cell-based
K562 = assay: Antiproliferative activity against human K562 cells assessed as inhibition of cell growth by MTT assay; assay type: functional, cell-based
HEK-293T = assay: Antiproliferative activity against HEK293T cells assessed as inhibition of cell growth by MTT assay; assay type: functional, cell-based; details: Homo sapiens
HeLa = assay: Antiproliferative activity against human HeLa cells assessed as inhibition of cell growth by MTT assay; assay type: functional, cell-based
A2780 = assay: Antiproliferative activity against human A2780 cells assessed as cell growth inhibition; assay type: functional, cell-based
Histone deacetylase 8 = biological target: T2, Histone deacetylase 8 (Homo sapiens, UniProt Q9BY41); assay: Inhibition of human recombinant HDAC8
T2 sequence (Q9BY41 whole entry): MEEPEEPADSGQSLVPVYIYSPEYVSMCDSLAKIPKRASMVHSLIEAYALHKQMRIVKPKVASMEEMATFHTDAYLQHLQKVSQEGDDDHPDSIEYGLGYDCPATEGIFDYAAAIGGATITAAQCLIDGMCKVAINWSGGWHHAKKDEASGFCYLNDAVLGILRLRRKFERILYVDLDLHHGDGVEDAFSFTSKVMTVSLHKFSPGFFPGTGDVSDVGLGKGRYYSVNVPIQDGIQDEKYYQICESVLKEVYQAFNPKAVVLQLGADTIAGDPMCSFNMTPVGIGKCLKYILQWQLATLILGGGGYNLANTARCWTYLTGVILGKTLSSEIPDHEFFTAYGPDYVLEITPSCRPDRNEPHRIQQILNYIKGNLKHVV

Nc1ccccc1NC(=O)CCCCCCC(=O)Nc1ccccc1
half-life [1]: 114 min | half-life [2]: 114 min

Cc1onc(-c2ccccc2)c1C(=O)NCCCCCCC(=O)NO
IC50 (Histone deacetylase 1): 3 µM | IC50 [3]: 180 nM

O=C(CCCCCSc1nc[nH]n1)Nc1ccccc1
IC50 (Histone deacetylase): 0.0081 mM | IC50 (MCF7): 11.1 µM | IC50 (K562): 11.1 µM | IC50 (HEK-293T): 11.1 µM | IC50 (HeLa): 11.1 µM

CP(=O)([O-])CCCCCCC(=O)Nc1ccccc1.[Li+]
IC50 (Histone deacetylase): 8.2 mM | IC50 (A2780): 110 µM | IC50 (Histone deacetylase 8): 390 µM
